Results: patent US10766869B2, “Triazoles for the treatment of demyelinating dieases” (Vertex Pharmaceuticals Incorporated, priority 2015, dated 2020)
Like-named read-outs stand apart in the source and are kept apart here.

Test system: primary rat mixed cortical cells
Experiment: In vitro myelination assay (MBP positive myelin strands, fold myelin pixels above background)
Type: cell-based
Settings: for fold induction at 1 µM / fold induction at 10 µM: Rattus norvegicus
In short: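 P1 rat cortical cells (neurons, OPCs, oligodendrocytes, astrocytes, microglia) were cultured 14 days at 37 °C with compound, with half-medium changes containing 1× compound on days 6 and 10. Fixed cells were immunostained for MBP and imaged at 10×. Total MBP myelin pixels per well were expressed as fold above no-compound baseline at 1.0 μM and 10.0 μM.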

[1] = 1.0 μM compound, read-out: Fold myelin pixels above background relative to baseline of no added compound
[2] = 10.0 μM compound, read-out: Fold myelin pixels above background relative to baseline of no added compound
[3] = 1.0 μM compound, relative to baseline of no added compound, read-out: Fold myelin pixels above background, 1.0 μM
[4] = 10.0 μM compound, relative to baseline of no added compound, read-out: Fold myelin pixels above background, 10.0 μM
[5] = 1.0 μM compound, relative to baseline of no added compound, read-out: Fold myelin pixels above background
[6] = 10.0 μM compound, relative to baseline of no added compound, read-out: Fold myelin pixels above background

Row | SMILES | fold induction at 1 µM [3] | fold induction at 10 µM [4] | fold induction at 1 µM [5] | fold induction at 10 µM [6] | other results
1 | [2H]C1([2H])N(c2cc(Nc3ncn(-c4cc(F)cc(F)c4)n3)cc(C(F)(F)F)c2)C([2H])([2H])C([2H])([2H])C([2H])([2H])C1([2H])[2H] [Compound 1032, N-[3-(2,2,3,3,4,4,5,5,6,6-decadeuterio-1-piperidyl)-5-(trifluoromethyl)phenyl]-1-(3,5-difluorophenyl)-1,2,4-triazol-3-amine] | – | – | – | – | fold induction at 1 µM [1]: 10 to 100; fold induction at 10 µM [2]: 1 to 10
2 | Cc1cc(Nc2ncn(-c3cc(F)c(C#N)cc3F)n2)cc(N2CCN(C3COC3)CC2)c1 [Compound 66, 2,5-difluoro-4-[3-[3-methyl-5-[4-(oxetan-3-yl)piperazin-1-yl]anilino]-1,2,4-triazol-1-yl]benzonitrile] | 10 to 100 | 10 to 100 | – | – | –
3 | CC(F)(F)c1cc(Nc2ncn(-c3cccc(F)c3)n2)nc(N2CCN(C3COC3)CC2)c1 [Compound 860, 4-(1,1-difluoroethyl)-N-[1-(3-fluorophenyl)-1,2,4-triazol-3-yl]-6-[4-(oxetan-3-yl)piperazin-1-yl]pyridin-2-amine] | – | – | – | – | fold induction at 1 µM [1]: 10 to 100; fold induction at 10 µM [2]: 1 to 10
4 | Cc1cc(Nc2ncn(-c3cnccn3)n2)cc([C@@]2(C)CNC(=O)O2)c1 (single isomer, unassigned) [Compound 603] | – | – | 10 to 100 | 10 to 100 | –
5 | Cc1cc(Nc2ncn(-c3cc(F)cc(F)c3)n2)nc(N2CCCC(F)C2)c1 (stereo not drawn) [Compound 568, N-[1-(3,5-difluorophenyl)-1,2,4-triazol-3-yl]-6-(3-fluoro-1-piperidyl)-4-methyl-pyridin-2-amine] | – | – | 1 to 10 | ≤ 1 | –
6 | Fc1cc(Nc2ncn(-c3cccc(C(F)F)c3)n2)cc(N2CCN(C3COC3)CC2)c1 [Compound 794, 1-[3-(difluoromethyl)phenyl]-N-[3-fluoro-5-[4-(oxetan-3-yl)piperazin-1-yl]phenyl]-1,2,4-triazol-3-amine] | – | – | – | – | fold induction at 1 µM [1]: 1 to 10; fold induction at 10 µM [2]: ≤ 1
7 | Cc1cc(Nc2ncn(-c3cc(F)cc(F)c3)n2)cc(C2CCN(C3CC3)CC2)c1 [Compound 261, N-[3-(1-cyclopropyl-4-piperidyl)-5-methyl-phenyl]-1-(3,5-difluorophenyl)-1,2,4-triazol-3-amine] | 10 to 100 | 10 to 100 | – | – | –
8 | COCC1CCN(c2cc(C)cc(Nc3ncn(-c4ccccc4)n3)c2)CC1 [Compound 481, N-[3-[4-(methoxymethyl)-1-piperidyl]-5-methyl-phenyl]-1-phenyl-1,2,4-triazol-3-amine] | – | – | 100 to 1000 | 100 to 1000 | –
9 | CCC(CO)N1CCN(c2cc(C)cc(Nc3ncn(-c4cc(F)cc(F)c4)n3)c2)CC1 (stereo not drawn) [Compound 904, 2-[4-[3-[[1-(3,5-difluorophenyl)-1,2,4-triazol-3-yl]amino]-5-methyl-phenyl]piperazin-1-yl]butan-1-ol] | – | – | – | – | fold induction at 1 µM [1]: ≤ 1; fold induction at 10 µM [2]: ≤ 1
10 | Cc1cc(Nc2ncn(-c3ccccc3)n2)c(F)c(OC2CCOC2)c1 (single isomer, unassigned) [Compound 1052, N-(2-fluoro-5-methyl-3-tetrahydrofuran-3-yloxy-phenyl)-1-phenyl-1,2,4-triazol-3-amine] | – | – | – | – | Fold myelin pixels above background relative to baseline of no added compound (1.0 μM compound): ++ (>10 to 100x); Fold myelin pixels above background relative to baseline of no added compound (10.0 μM compound): ++ (>10 to 100x)
11 | COc1cc(-n2cnc(Nc3cc(C)cc(N4CCN(C5COC5)CC4)c3)n2)ncn1 [Compound 254, 1-(6-methoxypyrimidin-4-yl)-N-[3-methyl-5-[4-(oxetan-3-yl)piperazin-1-yl]phenyl]-1,2,4-triazol-3-amine] | ≤ 1 | 100 to 1000 | – | – | –
12 | Cc1cc(Nc2ncn(-c3cc(F)cc(F)c3)n2)nc(C2CCN(C3COC3)CC2)c1 [Compound 801, N-[1-(3,5-difluorophenyl)-1,2,4-triazol-3-yl]-4-methyl-6-[1-(oxetan-3-yl)-4-piperidyl]pyridin-2-amine] | – | – | – | – | fold induction at 1 µM [1]: 1 to 10; fold induction at 10 µM [2]: 1 to 10
13 | CCCc1cc(Nc2ncn(-c3cc(F)cc(F)c3)n2)cc(N2CCN(C3COC3)CC2)c1 [Compound 396, 1-(3,5-difluorophenyl)-N-[3-[4-(oxetan-3-yl)piperazin-1-yl]-5-propyl-phenyl]-1,2,4-triazol-3-amine] | – | – | 10 to 100 | 10 to 100 | –
14 | CCN(CC)CC1CN(c2cc(C)cc(Nc3ncn(-c4cc(F)cc(F)c4)n3)c2)CCO1 (stereo not drawn) [Compound 1017, N-[3-[2-(diethylaminomethyl)morpholin-4-yl]-5-methyl-phenyl]-1-(3,5-difluorophenyl)-1,2,4-triazol-3-amine] | – | – | – | – | fold induction at 1 µM [1]: 10 to 100; fold induction at 10 µM [2]: ≤ 1
15 | c1cncc(-n2cnc(Nc3cc(C4CCOCC4)cc(C4CCOCC4)c3)n2)c1 [Compound 250, N-[3,5-di(tetrahydropyran-4-yl)phenyl]-1-(3-pyridyl)-1,2,4-triazol-3-amine] | 100 to 1000 | 10 to 100 | – | – | –
16 | Cc1cc(Nc2ncn(-c3cc(F)cc(F)c3)n2)nc(N2CCCC(O)C2)c1 (stereo not drawn) [Compound 755, 1-[6-[[1-(3,5-difluorophenyl)-1,2,4-triazol-3-yl]amino]-4-methyl-2-pyridyl]piperidin-3-ol] | – | – | 1 to 10 | 10 to 100 | –
17 | Fc1cc(Nc2ncn(-c3cc(F)cc(F)c3)n2)cc(N2CCN(C3COC3)CC2)c1 [Compound 112, 1-(3,5-difluorophenyl)-N-[3-fluoro-5-[4-(oxetan-3-yl)piperazin-1-yl]phenyl]-1,2,4-triazol-3-amine] | 1000 to 10000 | 100 to 1000 | – | – | –
18 | Cc1cc(Nc2ncn(-c3cc(F)cc(F)c3)n2)nc(N2CC(C(C)(C)O)C2)c1 [Compound 572, 2-[1-[6-[[1-(3,5-difluorophenyl)-1,2,4-triazol-3-yl]amino]-4-methyl-2-pyridyl]azetidin-3-yl]propan-2-ol] | – | – | ≤ 1 | 1 to 10 | –
19 | Cc1cc(Nc2ncn(-c3cc(F)ccc3F)n2)cc(N2CCN(C3(C)COC3)CC2)c1 [Compound 469, 1-(2,5-difluorophenyl)-N-[3-methyl-5-[4-(3-methyloxetan-3-yl)piperazin-1-yl]phenyl]-1,2,4-triazol-3-amine] | – | – | 100 to 1000 | 10 to 100 | –
20 | Cc1cc(Nc2ncn(-c3cccc(C(F)(F)F)c3)n2)cc(N2CCN(C3COC3)CC2)c1 [Compound 287, N-[3-methyl-5-[4-(oxetan-3-yl)piperazin-1-yl]phenyl]-1-[3-(trifluoromethyl)phenyl]-1,2,4-triazol-3-amine] | 100 to 1000 | 100 to 1000 | – | – | –
21 | Fc1cc(F)cc(-n2cnc(Nc3cc(N4CCOCC4)cc(C(F)(F)F)c3)n2)c1 [Compound 475, 1-(3,5-difluorophenyl)-N-[3-morpholino-5-(trifluoromethyl)phenyl]-1,2,4-triazol-3-amine] | – | – | 100 to 1000 | 1000 to 10000 | –
22 | COc1nccc(-n2cnc(Nc3cc(C4CC4)cc(N4CCN(C5COC5)CC4)c3)n2)n1 [Compound 277, N-[3-cyclopropyl-5-[4-(oxetan-3-yl)piperazin-1-yl]phenyl]-1-(2-methoxypyrimidin-4-yl)-1,2,4-triazol-3-amine] | 10 to 100 | 100 to 1000 | – | – | –
23 | Cc1cc(Nc2ncn(-c3cc(F)cc(F)c3)n2)cc(N2CC(S(C)(=O)=O)C2)c1 [Compound 1037, 1-(3,5-difluorophenyl)-N-[3-methyl-5-(3-methylsulfonylazetidin-1-yl)phenyl]-1,2,4-triazol-3-amine] | – | – | – | – | fold induction at 1 µM [1]: 10 to 100; fold induction at 10 µM [2]: ≤ 1
24 | Cc1cc(Nc2ncn(-c3ccnnc3)n2)cc(N2CCN(C)CC2)c1 [Compound 399, N-[3-methyl-5-(4-methylpiperazin-1-yl)phenyl]-1-pyridazin-4-yl-1,2,4-triazol-3-amine] | – | – | 10 to 100 | 1 to 10 | –
25 | Cc1cc(Nc2ncn(-c3ccc(C#N)cc3)n2)cc(N2CCN(C3COC3)CC2)c1 [Compound 687, 4-[3-[3-methyl-5-[4-(oxetan-3-yl)piperazin-1-yl]anilino]-1,2,4-triazol-1-yl]benzonitrile] | – | – | 1 to 10 | 1 to 10 | –
26 | COCCC1CCN(c2cc(C)cc(Nc3ncn(-c4ccccc4)n3)c2)CC1 [Compound 148, N-[3-[4-(2-methoxyethyl)-1-piperidyl]-5-methyl-phenyl]-1-phenyl-1,2,4-triazol-3-amine] | 100 to 1000 | 100 to 1000 | – | – | –
27 | Cc1cc(Nc2ncn(-c3cc(F)cc(F)c3)n2)c(F)c(N2CC3(C2)CN(C(C)C)C3)c1 [Compound 1072, 1-(3,5-difluorophenyl)-N-[2-fluoro-3-(2-isopropyl-2,6-diazaspiro[3.3]heptan-6-yl)-5-methyl-phenyl]-1,2,4-triazol-3-amine] | – | – | – | – | fold induction at 1 µM [1]: 1 to 10; fold induction at 10 µM [2]: ≤ 1
28 | COCC1CCN(c2cc(C)cc(Nc3ncn(-c4ccc(F)c(F)c4)n3)c2)CC1 [Compound 299, 1-(3,4-difluorophenyl)-N-[3-[4-(methoxymethyl)-1-piperidyl]-5-methyl-phenyl]-1,2,4-triazol-3-amine] | 100 to 1000 | 10 to 100 | – | – | –
29 | Cc1cc(Nc2ncn(-c3ccccc3)n2)cc(C2CCN(C3(C)COC3)CC2)c1 [Compound 294, N-[3-methyl-5-[1-(3-methyloxetan-3-yl)-4-piperidyl]phenyl]-1-phenyl-1,2,4-triazol-3-amine] | 1000 to 10000 | 1000 to 10000 | – | – | –
30 | Fc1cc(Nc2ncn(-c3ccc(F)c(F)c3)n2)cc(N2CCCC2)c1 [Compound 99, 1-(3,4-difluorophenyl)-N-(3-fluoro-5-pyrrolidin-1-yl-phenyl)-1,2,4-triazol-3-amine] | ≤ 1 | ≤ 1 | – | – | –
